This note sets out measurements from patent US20100190711A1, “BIG GASTRIN I AS A THERAPEUTIC AGENT” (priority 2007, published 2010).

Where a SMILES comes first, the peptide text is derived from it. [ ]: non-standard residue; d: D form. pGlu = O=C1CC[C@@H](C(=O)O)N1

For one data set, the system named is HIV-1IIIB. The experiment in a line: HIV-1 antiviral assay (CPE reduction, MTS) in CEM-SS cells. Format: cell-based. As to conditions: peptide 10 micrograms per ml; 6 days post-infection.
A further data set concerns CEM-SS cells. Kind of data set: Cytotoxicity (MTS cell viability) in the HIV-1 assay. To be noted: CEM-SS cells, MTS; peptide 10 micrograms per ml.
A further data set has as its system MRC-5 cells. Kind of data set: Cytotoxicity (CellTiter 96 cell viability) in the HCMV assay. As to conditions: MRC-5 cells, 6 days incubation.
A further data set has as its system Pseudomonas aeruginosa. Type of data set: cell-based. As to conditions: 5 micrograms per ml.
The subject of the next data set is Streptococcus pneumoniae. Format: cell-based. As to conditions: 5 micrograms per ml.
A further data set concerns MRSA. To be noted: 5 micrograms per ml.
The next data set in a line: in vitro. As to conditions: human, HepG2-2.2.15 cells.
Data set [1] can be described thus: Cytotoxicity (MTS cell viability) in the HIV-1 assay. To be noted: human, CEM-SS cells (uninfected, cells plus peptide only).
Data set [2] in a line: Cytotoxicity (CellTiter 96 cell viability) in the HCMV assay. As to conditions: human, MRC-5 cells (embryonal lung fibroblasts).

As for `Cc1cn([C@H]2C[C@H](N=[N+]=[N-])[C@@H](CO)O2)c(=O)[nH]c1=O` [AZT, reference compound], in the data set with HIV-1IIIB, the “% CPE reduction in HIV-1 infected CEM-SS cells” value amounted to 99%. The “% Cell viability” value in the data set with CEM-SS cells came to 97%.

Take `CC(C)(C)NC(=O)[C@@H]1CN(Cc2cccnc2)CCN1C[C@@H](O)C[C@@H](Cc1ccccc1)C(=O)N[C@H]1c2ccccc2C[C@H]1O` [Indinavir, indinavir]: in the data set on HIV-1IIIB, the “% CPE reduction in HIV-1 infected CEM-SS cells” value came out at 100%.

As for `Nc1nc(O)c2ncn(COC(CO)CO)c2n1` [Ganciclovir, reference compound], the “% Cell viability” value with MRC-5 cells worked out at 100%.

On to `CSCC[C@H](NC(=O)[C@H](Cc1c[nH]c2ccccc12)NC(=O)CNC(=O)[C@H](Cc1ccc(O)cc1)NC(=O)[C@H](C)NC(=O)[C@H](CCC(=O)O)NC(=O)[C@H](CCC(=O)O)NC(=O)[C@H](CCC(=O)O)NC(=O)[C@H](CCC(=O)O)NC(=O)[C@H](CCC(=O)O)NC(=O)[C@H](CC(C)C)NC(=O)[C@H](Cc1c[nH]c2ccccc12)NC(=O)[C@@H]1CCCN1C(=O)CNC(=O)[C@H](CCC(N)=O)NC(=O)[C@H](CCCCN)NC(=O)[C@H](CCCCN)NC(=O)[C@H](CO)NC(=O)[C@@H]1CCCN1C(=O)[C@H](CC(=O)O)NC(=O)[C@H](C)NC(=O)[C@@H](NC(=O)[C@H](CC(C)C)NC(=O)[C@H](Cc1c[nH]cn1)NC(=O)[C@@H]1CCCN1C(=O)[C@@H]1CCCN1C(=O)CNC(=O)[C@H](CCC(N)=O)NC(=O)[C@@H]1CCCN1C(=O)CNC(=O)[C@H](CC(C)C)NC(=O)[C@@H]1CCC(=O)N1)C(C)C)C(=O)N[C@@H](CC(=O)O)C(=O)N[C@@H](Cc1ccccc1)C(N)=O` [Big Gastrin I] ([pGlu]LGPQGPPHLVADPSKKQGPWLEEEEEAYGWMDF-NH2), for which the “% inhibition” value with Pseudomonas aeruginosa, in the data set with Streptococcus pneumoniae and with MRSA was 0.0% throughout. The molecule also came in with a viability at 144 h, 10 micrograms per ml in “in vitro” of 88.7%. In addition, the viability at 10 micrograms per ml in [1] worked out at 100%. This molecule registered a viability at 144 h in data set [2] of 100%.

The term % inhibition denotes the drop in the measured response relative to a control, in per cent. Low values mean a response near the control, high ones a response far below the control. In general, viability refers to a read-out of living cells in per cent, often relative to untreated cells.
